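48-hour exposure; five concentrations; linearly interpolated endpoints. Abbreviation: GI50, concentration required for 50% inhibition of growth. TGI marks complete inhibition of growth.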 Where only a bound is given, the exact number is not on record here.

Some test systems named below: SF-295 CNS; U251 CNS; SF-539 CNS; HT29 colon; RXF 393 renal; PC-3 prostate; ACHN renal; SNB-19 CNS; MOLT-4 leukemia; 786-0 renal.
What all share (experiment): NCI tumour cell line growth inhibition, 48 h

As for `CCC1=C[C@@H]2CN(C1)Cc1c([nH]c3ccccc13)[C@@](C(=O)OC)(c1cc3c(cc1OC)N(C=O)[C@H]1[C@@](O)(C(=O)OC)[C@H](OC(C)=O)[C@]4(CC)[C@@H]5C[C@@H]5CN5CC[C@]31[C@@H]54)C2`, the GI50 in the assay with SF-295 CNS was 0.00156 µM; with U251 CNS, 0.000676 µM; with SF-539 CNS, 0.000646 µM; in the assay with HT29 colon, below 0.000625 µM; in the assay on RXF 393 renal it was 0.00155 µM; in the assay with PC-3 prostate, 0.000826 µM. Further, the GI50 is 0.0315 µM with ACHN renal, 0.00127 µM in the assay with SNB-19 CNS, 0.000789 µM in the assay with MOLT-4 leukemia and 0.00587 µM in the assay with 786-0 renal. Further, the TGI is above 6.25 µM with U251 CNS; 0.0201 µM in the assay with SF-539 CNS; above 6.25 µM in the assay with HT29 colon; above 6.25 µM with RXF 393 renal; above 6.25 µM in the assay with PC-3 prostate; above 6.25 µM with ACHN renal. Also, the figures for the TGI in the assay with SNB-19 CNS, with MOLT-4 leukemia and in the assay with 786-0 renal were above 6.25 µM, above 6.25 µM and above 3.19 µM, respectively.
Regarding `O=C1CCCCCCCC/C=C/CCC(c2ccco2)O1` (centres undefined), the GI50 in the assay with SF-295 CNS was 18.6 µM; in the assay with U251 CNS, 31.4 µM; in the assay with SF-539 CNS it was 60.5 µM; with HT29 colon, 44.1 µM; with RXF 393 renal it was above 100 µM; with PC-3 prostate, 77.8 µM. In addition, the GI50 with ACHN renal is above 100 µM; in the assay with SNB-19 CNS, 24 µM; in the assay with MOLT-4 leukemia, 24.1 µM; in the assay with 786-0 renal, 45.9 µM. The TGI in the assay on SF-295 CNS, in the assay with U251 CNS, with SF-539 CNS, in the assay with HT29 colon, with RXF 393 renal and in the assay on PC-3 prostate was above 100 µM throughout. The TGI in the assay with ACHN renal was above 100 µM; in the assay on SNB-19 CNS, 60.7 µM; with MOLT-4 leukemia it was 89.6 µM; in the assay with 786-0 renal it was above 100 µM.
Regarding `COc1c(C)c2c(c(O)c1C/C=C(\C)CCC(=O)OCCN1CCOCC1)C(=O)OC2`, the GI50 in the assay on SF-295 CNS was 0.323 µM; in the assay with U251 CNS it was 0.11 µM; in the assay with SF-539 CNS it was 0.375 µM; in the assay with HT29 colon it was 0.552 µM; with RXF 393 renal it was 0.774 µM; with PC-3 prostate it was 0.562 µM. The GI50 in the assay with ACHN renal is 0.458 µM; in the assay on SNB-19 CNS, 0.325 µM; in the assay on MOLT-4 leukemia, 0.302 µM; in the assay on 786-0 renal it was 0.385 µM. Also, the TGI with SF-295 CNS, with U251 CNS, in the assay with SF-539 CNS, with HT29 colon, in the assay with RXF 393 renal and in the assay on PC-3 prostate was above 100 µM throughout. For the same molecule, the TGI with ACHN renal, in the assay with SNB-19 CNS, in the assay on MOLT-4 leukemia and in the assay with 786-0 renal was above 100 µM each time.
As for `COc1cc(Cl)cc(-c2nn(C(=O)NCCN3CCN(C)CC3)cc2-c2ccncc2)c1`, the GI50 in the assay on SF-295 CNS is 7.73 µM; with U251 CNS it was 15.1 µM; with SF-539 CNS it was 2.84 µM; in the assay on HT29 colon it was 3.32 µM; in the assay on RXF 393 renal, 2.41 µM; in the assay with PC-3 prostate, 19.5 µM. In addition, the GI50 in the assay with ACHN renal is 4.16 µM; in the assay on SNB-19 CNS, 7.93 µM; with MOLT-4 leukemia it was 29.4 µM; in the assay with 786-0 renal, 5.99 µM. Also, the TGI with SF-295 CNS is 46.6 µM; in the assay with U251 CNS, above 100 µM; in the assay with SF-539 CNS it was 22.6 µM; in the assay on HT29 colon it was 72.1 µM; in the assay with RXF 393 renal, 18.1 µM; in the assay with PC-3 prostate, above 100 µM. Besides, the TGI was above 100 µM in the assay with ACHN renal, above 100 µM in the assay on SNB-19 CNS, above 100 µM in the assay with MOLT-4 leukemia and 25.6 µM with 786-0 renal.
In the case of `CC1(C)OC[C@@H]([C@@]2(CO[Si](C)(C)C(C)(C)C)CC=CC(=O)O2)O1`, the GI50 in the assay with SF-295 CNS was 19.6 µM; in the assay on U251 CNS it was 31.2 µM; with SF-539 CNS, 20.6 µM; in the assay on HT29 colon it was 34.5 µM; in the assay on RXF 393 renal, 23.6 µM; in the assay on PC-3 prostate, 19.6 µM. The GI50 in the assay on ACHN renal is 22.4 µM; in the assay with SNB-19 CNS, 22.7 µM; in the assay on MOLT-4 leukemia, 23.7 µM; in the assay on 786-0 renal it was 20.7 µM. Also, the TGI was 42 µM with SF-295 CNS; above 100 µM in the assay on U251 CNS; 42.4 µM in the assay with SF-539 CNS; above 100 µM in the assay with HT29 colon; 56.3 µM in the assay on RXF 393 renal; 74.2 µM in the assay on PC-3 prostate. For the same molecule, the TGI with ACHN renal is 51.7 µM; in the assay on SNB-19 CNS, 68.9 µM; in the assay with MOLT-4 leukemia, above 100 µM; in the assay with 786-0 renal, 40.4 µM.
As to `CC1(C)NCCC[C@]2(C)[C@H]3C=CC4=C5C[C@](C)(CO)CC[C@]5(C)CC[C@@]4(C)[C@]3(C)CC[C@@H]12`, the GI50 in the assay with SF-295 CNS was 2 µM; with U251 CNS, 4.17 µM; with SF-539 CNS, 2.69 µM; with HT29 colon, 3.25 µM; in the assay with RXF 393 renal it was 1.84 µM; with PC-3 prostate it was 3.05 µM. For the same molecule, the GI50 is 2.93 µM with ACHN renal, 11.6 µM with SNB-19 CNS, 2.46 µM in the assay with MOLT-4 leukemia and 2.66 µM with 786-0 renal. Further, the TGI in the assay with SF-295 CNS was determined as 4.04 µM; with U251 CNS, 15.9 µM; in the assay on SF-539 CNS, 9.26 µM; in the assay on HT29 colon, 13.8 µM; with RXF 393 renal it was 4.15 µM; with PC-3 prostate, 12.3 µM. Further, the TGI in the assay on ACHN renal turned out to be 9.56 µM; with SNB-19 CNS, 25.3 µM; with MOLT-4 leukemia it was 6.8 µM; in the assay with 786-0 renal it was 8.59 µM.
Regarding `[N-]=[N+]=C(C(=O)OCC#CCOC(=O)C(=[N+]=[N-])S(=O)(=O)c1ccccc1)S(=O)(=O)c1ccccc1`, the TGI with SF-295 CNS, with U251 CNS, with SF-539 CNS, in the assay on HT29 colon, in the assay with RXF 393 renal and in the assay on PC-3 prostate was above 10 µM in each case. Besides, the TGI with ACHN renal, in the assay with SNB-19 CNS, with MOLT-4 leukemia and in the assay on 786-0 renal was above 10 µM each time.

(Values after PubChem BioAssay (NCI).)
